Among the data in PubChem BioAssay (NCI) are TGI and GI50 values, retold here.

Some test systems named below: HOP-62 NSCLC; HT29 colon; SK-MEL-2 melanoma; SR leukemia.
Holding throughout (assay): inhibition of tumour cell growth, NCI panel, 48 h

The structures appear in SMILES notation. “And” between values parts separate entries of the source, which are not always exact repeats. Equal values may be shown once.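 A five-concentration, 48-hour dose response in 96-well plates underlies each endpoint, interpolated linearly between surrounding concentrations. Here, GI50 denotes the concentration required for 50% inhibition of growth. TGI denotes the concentration required for complete inhibition of growth.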 Where a SMILES comes first, the peptide text is derived from it. The star is where a group is joined. Cbz = O=C(OCc1ccccc1)*; Boc = CC(C)(C)OC(=O)*; OSu = O=C1CCC(=O)N1O*; Bn = c1ccc(C*)cc1 A value given as a limit tells only on which side of the number the result lay.

Turning to `CCCCCCCCCCCCC1N=C(N)NC2(CCCO2)C1C(=O)OC` (stereo unspecified), the TGI was 23.8 µM in the assay on HOP-62 NSCLC, 3.48 µM in the assay on HT29 colon, 20.9 µM in the assay on SK-MEL-2 melanoma and over 20.9 µM in the assay on SR leukemia.

Regarding `CC(C)[C@@H]1NC(=O)[C@@H]2N=C(O[C@H]2C)[C@H](C(C)C)NC(=O)C2N=C1O[C@H]2C`, the TGI in the assay with HOP-62 NSCLC, with HT29 colon, in the assay with SK-MEL-2 melanoma and with SR leukemia was over 100 µM throughout.

In the case of `CCOC(=O)c1c(-c2ccccc2)c(C)cn1C`, the TGI with HT29 colon, with SK-MEL-2 melanoma and in the assay with SR leukemia was over 10 µM each time.

For the molecule `Clc1cc2ncn(C3CCCCO3)c2cc1Cl` (stereo unspecified), the TGI with HOP-62 NSCLC, with HT29 colon, in the assay on SK-MEL-2 melanoma and in the assay on SR leukemia was over 100 µM each time.

On to `O=C1/C(=C/c2ccc(Cl)cc2)Oc2ccccc21`, for which the TGI is 53.3 µM in the assay with HOP-62 NSCLC, over 100 µM with HT29 colon and over 100 µM in the assay on SR leukemia.

Regarding `CCCCCCCc1ccc(-c2nnc(N=Nc3ccc(OCCCCC)cc3)s2)s1`, the TGI in the assay with HOP-62 NSCLC, with HT29 colon and with SK-MEL-2 melanoma was over 100 µM each time.

Consider `CC(=O)C(C(C)=O)[C@H]1OC(C)(C)O[C@H]1[C@H]1COC(C)(C)O1`, for which the TGI is over 100 µM in the assay with HOP-62 NSCLC, over 100 µM with HT29 colon and 58.8 µM with SK-MEL-2 melanoma.

As to `O=C(NCc1ccccc1Cl)c1c(O)c2ccccc2[nH]c1=O`, the values for the TGI with HOP-62 NSCLC, in the assay with HT29 colon and in the assay with SR leukemia were 41 µM, over 100 µM and over 100 µM, respectively.

Regarding `CC[C@@]1(O)C(=O)OCc2c1cc1n(c2=O)Cc2c-1nc1ccccc1c2C=Nc1ccccc1N[C@@H]1c2cc3c(cc2[C@@H](c2cc(OC)c(O)c(OC)c2)[C@H]2C(=O)OC[C@@H]21)OCO3`, the TGI in the assay with HOP-62 NSCLC was 0.466 µM and 0.154 µM; with HT29 colon, over 50 µM; with SK-MEL-2 melanoma it was 36.3 µM and 3.86 µM. Moreover, the GI50 in the assay on HT29 colon was 0.327 µM and 0.125 µM; in the assay with SK-MEL-2 melanoma, 7.14 µM and 1.62 µM.

Regarding `CCC(=C/[C@H](C)C/C=C/C(C)=C/[C@@H](C)C(=O)[C@@H](C)[C@H](O)[C@@H](C)CC)/C=C/[C@H]1CC=CC(=O)O1`, the TGI is 2.05 µM and 13 µM in the assay with HOP-62 NSCLC; 2.48 µM and 10.7 µM in the assay on HT29 colon; under 0.0012 µM with SK-MEL-2 melanoma.

`COC(=O)c1ccccc1C1CN=NC12Cc1c(C)ccc(C)c1C2=O` (stereo unspecified): the TGI in the assay with HOP-62 NSCLC, with HT29 colon and with SK-MEL-2 melanoma was over 100 µM throughout.

As to `Clc1ccc(C2=NCON=C2c2ccc(Cl)cc2)cc1`, the figures for the TGI with HOP-62 NSCLC, in the assay with HT29 colon and in the assay with SK-MEL-2 melanoma were over 100 µM, 31.1 µM and 46.1 µM, respectively.

Regarding `CCCCCCCCCCCCC1N=C(N)N2CCCC2=C1C(=O)OC` (stereo unspecified), the TGI in the assay with HOP-62 NSCLC was 9.95 µM; with HT29 colon, 3.06 µM; in the assay on SK-MEL-2 melanoma it was 3.64 µM; in the assay with SR leukemia, over 100 µM.

With `CN(/N=C\c1ccc2ccccc2c1)C1=NCCCN1`, the TGI is 27.4 µM in the assay on HOP-62 NSCLC, 31.1 µM in the assay with HT29 colon, 35 µM in the assay on SK-MEL-2 melanoma and over 100 µM in the assay on SR leukemia.

In the case of `Cc1ccc(-n2cc(-c3ccc(Cl)cc3)c3c(=N)n(N)cnc32)cc1`, the TGI in the assay on HOP-62 NSCLC is 27.4 µM; with HT29 colon, 20.6 µM; in the assay on SK-MEL-2 melanoma, 26.8 µM.

Regarding `CC(C)=CCCC1(C)C2COC(=O)C21` (stereo unspecified), the GI50 with HOP-62 NSCLC was > 100 µM and 27.6 µM; in the assay with SR leukemia, over 100 µM. The TGI is > 100 µM and 75.4 µM in the assay with HOP-62 NSCLC; over 100 µM in the assay with HT29 colon; over 100 µM in the assay on SK-MEL-2 melanoma; over 100 µM with SR leukemia.

Regarding `COc1cc2c(cc1OC)C(=O)N(c1ccc(OCCN3CCCC3)cc1)C2=O`, the TGI with HOP-62 NSCLC, in the assay with HT29 colon, in the assay with SK-MEL-2 melanoma and in the assay with SR leukemia was over 100 µM throughout.

As to `O=C(O)C1(C(O)c2ccccc2)SCCCS1` (stereo unspecified), the TGI with HOP-62 NSCLC, in the assay on HT29 colon, in the assay with SK-MEL-2 melanoma and in the assay with SR leukemia was over 10 µM throughout.

With `CC(C)(C)OC(=O)NC(Cc1ccc(OCc2ccccc2)cc1)C(=O)NC(CCCCNC(=O)OCc1ccccc1)C(=O)NC(CCCCNC(=O)OCc1ccccc1)C(=O)ON1C(=O)CCC1=O` (stereo unspecified) (Boc-Tyr(Bn)-Lys(Cbz)-Lys(Cbz)-OSu; configuration not given here), the TGI was over 100 µM in the assay with HOP-62 NSCLC, over 100 µM in the assay with HT29 colon, 99.4 µM with SK-MEL-2 melanoma and over 100 µM in the assay on SR leukemia.

Turning to `S=c1[nH]n2c(COc3cc(Cl)c(OCc4nnc5sc(=S)[nH]n45)cc3Cl)nnc2s1`, the TGI in the assay on HOP-62 NSCLC, in the assay on HT29 colon, with SK-MEL-2 melanoma and with SR leukemia was over 100 µM throughout.

Consider `NC(N)=NCCCC(NC(=O)c1c2ccccc2nc2ccccc12)C(=O)O` (stereo unspecified), for which the TGI in the assay on HOP-62 NSCLC, in the assay on HT29 colon, in the assay with SK-MEL-2 melanoma and in the assay with SR leukemia was over 100 µM each time.

Take `Oc1ccc(SCc2cc(O)ccc2O)cc1`: the TGI in the assay with HOP-62 NSCLC is 43.7 µM; in the assay on HT29 colon, over 100 µM; with SK-MEL-2 melanoma, 39.2 µM; in the assay with SR leukemia it was over 100 µM.

On to `Cc1ccc2nc(C(=O)O)c(=O)[nH]c2c1`, for which the TGI in the assay with HOP-62 NSCLC, in the assay on HT29 colon, in the assay on SK-MEL-2 melanoma and with SR leukemia was over 100 µM each time.

Turning to `CCOC(=O)C1C(c2ccc(OC)cc2)c2c([nH]n(-c3ccccc3)c2=O)CC1(C)O` (stereo unspecified), the TGI in the assay with HOP-62 NSCLC, in the assay with HT29 colon, in the assay with SK-MEL-2 melanoma and with SR leukemia was over 100 µM each time.

For `COc1ccc(/C=N/Nc2nnc3c(n2)c2ccccc2c2nn(-c4ccccc4Cl)nc23)cc1`, the TGI in the assay with HOP-62 NSCLC, with HT29 colon and with SK-MEL-2 melanoma was over 100 µM throughout.

On to `COc1cc2c(cc1OC)C(=O)/C(=C/c1ccc(N(C)C)cc1)CC2`, for which the TGI in the assay with HOP-62 NSCLC, with HT29 colon, in the assay on SK-MEL-2 melanoma and in the assay on SR leukemia was over 10 µM in each case.

On to `CCC1CN2CCc3c([nH]c4ccccc34)[C@@](C(=O)OC)(c3cc4c(cc3OC)N(C)C3C(O)(C(=O)OC)C(C(=O)OC)C5(CC)C=CCN6CCC43C65)C[C@@H](C2)[C@@H]1C(C)(C)C` (stereo partly specified), for which the TGI in the assay with HOP-62 NSCLC is 1.25 µM; with HT29 colon it was over 2.64 µM; in the assay on SK-MEL-2 melanoma, over 4.02 µM; in the assay on SR leukemia, over 6.41 µM.
